{
  "source": "patent US20030017483A1",
  "about": "“Modulation of molecular interaction sites on RNA and other biomolecules” (priority 1998, published 2003)",
  "key": {"[1]": {"system": "luciferase reporter", "assay": "transcription/translation assay based on expression of a luciferase plasmid", "assay_type": "biochemical", "procedure": "The compounds are screened for binding affinity using MASS or conventional high-throughput functional screens. The best scoring compounds from docking a 256-member library against the 16S A-site ribosomal RNA structure are shown in the table below. The MASS assay was performed with the 27-mer model RNA sequence of the 16S A-site whose NMR structure has been determined. The transcription/translation assay was based on expression of a luciferase plasmid."}, "[2]": {"target": "27-mer model RNA sequence of the 16S A-site", "assay": "MASS assay (mass spectrometry binding affinity)", "conditions": "27-mer model RNA of the 16S A-site", "description": "One mass spectrometric method which is particularly useful when combined with the techniques of the foregoing commonly owned inventions provides the determination of specificity and affinity of ligands to RNA targets. MASS (multi target affinity/specificity screening) techniques can provide high throughput screening methods to analyze the specificity and affinity of ligands to molecular interaction sites of nucleic acids, especially RNA. […]\nBinding site information can be obtained by comparing the gas phase fragmentation patterns of the free and complexed target while relative binding constants are derived from the relative abundance of complexes using a complex with a known Kd as an internal standard. With knowledge of the specificity and affinity of ligands to the molecular interaction site of a target RNA, the desired lead or ultimate compound for modulation of the RNA can be determined.\nThe compounds are screened for binding affinity using MASS or conventional high-throughput functional screens. […] The MASS assay was performed with the 27-mer model RNA sequence of the 16S A-site whose NMR structure has been determined. […]"}, "[3]": {"target": "27-mer RNA containing the A-site of the 16S rRNA", "conditions": "cited from earlier work"}, "[4]": {"system": "E. coli", "assay": "high throughput screening assay for antibacterial activity", "assay_type": "cell-based", "conditions": "Escherichia coli; crude compounds, against E. coli; read-out: minimum inhibitory concentrations (MIC's)", "description": "This activity was verified by manual solution synthesis of analytically pure material as described in Example 6 above, which had identical activity."}, "[5]": {"conditions": "cited from earlier work"}, "[6]": {"system": "23S rRNA fragment / L11 protein fragment", "assay": "L11/thiostrepton SPA assay", "assay_type": "binding", "conditions": "positive control, RNA under destabilizing conditions", "description": "The mode of action of thiostrepton appears to be to stabilize a region of the 23S rRNA and by doing so prevent a structural transition in the L11 protein. Among the many assays that look at RNA/protein interactions, an SPA assay has been designed to look for small molecules that could be effective as thiostrepton ‘like’ agents. This assay uses a radiolabeled small fragment of the 23S rRNA, a biotinylated 75 amino acid fragment of the L11 protein that contains the 23S rRNA binding domain and thiostrepton. The folding conditions of the secondary and tertiary structures of the 23S rRNA fragment have been examined as have the binding conditions of the L11 fragment to the 23S rRNA. The L11-thiostrepton assay has been optimized so that the 23S rRNA fragment is in an unfolded state prior to the addition of compounds. Addition of the L11 fragment to this unfolded RNA results in no detectable binding interaction. The high throughput assay is run by mixing the 23S rRNA fragment, under destabilizing conditions, with compounds of interest, incubating this mixture, and then adding the L11 fragment. Streptavidin-coated SPA beads are added for binding detection. Thiostrepton is used as a positive control."}, "[7]": {"system": "luciferase mRNA (control luc+9)", "assay": "wheat germ lysate translation of control luciferase mRNA", "assay_type": "biochemical", "conditions": "control mRNA without TAR", "description": "It is believed that stabilization of mRNA structures near the 5′-cap also could be effected by specific “small” molecules, and that such binding would reduce the translational efficiency of the mRNA. To test this hypothesis, a plasmid was constructed containing the luciferase message behind a 5′-UTR containing a 27-mer RNA construct of the HIV TAR stem-loop bulge whose structure had been determined by NMR."}, "[8]": {"system": "TAR", "conditions": "in words, FIG. 36"}, "[9]": {"system": "TAR RNA interaction with tat peptide", "assay": "disruption of TAR RNA interaction with tat peptide", "assay_type": "binding, HIV"}, "[10]": {"target": "luciferase mRNA containing the TAR RNA structure in the 5′-UTR", "assay": "wheat germ lysate translation of luciferase mRNA containing TAR RNA structure", "assay_type": "biochemical, HIV", "conditions": "luciferase mRNA with TAR RNA structure in the 5′-UTR, read-out: concentration reducing translation by 50%", "description": "It is believed that stabilization of mRNA structures near the 5′-cap also could be effected by specific “small” molecules, and that such binding would reduce the translational efficiency of the mRNA. To test this hypothesis, a plasmid was constructed containing the luciferase message behind a 5′-UTR containing a 27-mer RNA construct of the HIV TAR stem-loop bulge whose structure had been determined by NMR. The resulting mRNA could be expressed and capped in a wheat germ lysate translation system supplemented with T7 polymerase following addition of m^7G to the lysate (see, FIG. 38A). Insertion of a 9-base leader before the TAR structure (HIVluc+9) enhanced the translational efficiency, presumably by allowing the pre-initiation complex to form. The helicase activity associated with the pre-initiation complex can transiently melt out the TAR RNA structure, and the message is translated (see, FIG. 38A)."}},
  "note": "Where two headings read alike, the source gives them in different places.",
  "data": [
    {"compound": "NC[C@@H]1O[C@H](O[C@H]2[C@@H](O)[C@H](O[C@@H]3[C@@H](O)[C@H](N)C[C@H](N)[C@H]3O[C@H]3O[C@H](CO)[C@@H](O)[C@H](O)[C@H]3N)O[C@@H]2CO)[C@H](N)[C@@H](O)[C@@H]1O", "note": "[Paromomycin]", "values": [
      {"measurement": "Activity: Inhibition of protein synthesis in transcription/translation assay for luciferase reporter", "setting": "[1]", "result": 0.3, "unit": "µM"},
      {"measurement": "Kd", "setting": "[2]", "result": 500, "unit": "nM"},
      {"measurement": "Kd", "setting": "[3]; 27-mer RNA containing the A-site of the 16S rRNA, known value, read-out: Kd, binding to the unpaired adenosine residues", "result": 200, "unit": "nM"},
      {"measurement": "Kd", "setting": "[3]; standard, known from other experiments or literature, read-out: binding affinity for a test 27-mer RNA", "result": "~1000", "unit": "nM"}
    ]},
    {"compound": "O=C(NO)[C@@H](Cc1ccc2ccccc2c1)NS(=O)(=O)c1ccc(Br)cc1", "note": "[Compound 5-n-vi, (2R)-2-(((4-bromophenyl)sulfonyl)amino)-3-(2-naphthyl)propanehydroxamic Acid]", "values": [
      {"measurement": "MIC", "setting": "[4]", "result": "3 to 6", "unit": "µM"}
    ]},
    {"compound": "C=C(NC(=O)C(=C)NC(=O)c1csc(C2=N[C@@H]3c4csc(n4)[C@H]4NC(=O)c5csc(n5)[C@H]([C@](C)(O)[C@@H](C)O)NC(=O)[C@H]5CSC(=N5)/C(=C/C)NC(=O)[C@H]([C@@H](C)O)NC(=O)c5csc(n5)[C@]3(CC2)NC(=O)[C@H](C)NC(=O)C(=C)NC(=O)[C@H](C)NC(=O)[C@H]([C@@H](C)CC)N[C@@H]2C=Cc3c([C@H](C)O)cc(nc3[C@H]2O)C(=O)O[C@@H]4C)n1)C(N)=O", "note": "[thiostrepton]", "values": [
      {"measurement": "solubility", "setting": "[5]", "result": "very poor solubility"},
      {"measurement": "L11 fragment binding to 23S rRNA fragment (SPA signal)", "setting": "[6]", "result": "allows the L11 fragment to bind leading to the generation of a signal"}
    ]},
    {"compound": "CNc1ccc(NCCO)c2c1C(=O)c1ccccc1C2=O", "note": "[ACD 00001199]", "values": [
      {"measurement": "inhibition of translation of the luciferase mRNA", "setting": "[7]", "result": "some inhibition of translation at very high concentrations"},
      {"measurement": "IC50 values", "setting": "[8]", "result": "low"},
      {"measurement": "concentration at which the interaction of TAR RNA with tat peptide is disrupted", "setting": "[9]", "result": 1, "unit": "µM"},
      {"measurement": "IC50", "setting": "[10]", "result": 50000, "unit": "nM"}
    ]},
    {"compound": "O=C(NO)[C@@H](Cc1ccc2ccccc2c1)NS(=O)(=O)c1ccc2ccccc2c1", "note": "[Compound 5-n-ii, (2R)-3-(2-naphthyl)-2-((2-naphthylsulfonyl)amino)propanehydroxamic Acid]", "values": [
      {"measurement": "MIC", "setting": "[4]", "result": "0.7 to 1.5", "unit": "µM"}
    ]}
  ]
}
